The target of data set [1] is T1, ΔF508-CFTR (Homo sapiens, UniProt P13569, DEL508-508).
T1 construct: expressed in transfected cells
As to the kind of experiment: Membrane potential optical assay (fluorescent voltage sensing dyes, FLIPR III), identification of potentiator compounds (Protocol 1). It is filed as cell-based. From the text: The assay utilizes fluorescent voltage sensing dyes to measure changes in membrane potential using a fluorescent plate reader (e.g., FLIPR III, Molecular Devices, Inc.) as a readout for increase in functional ΔF508-CFTR in NIH 3T3 cells. The driving force for the response is the creation of a chloride ion gradient in conjunction with channel activation by a single liquid addition step after the cells have previously been treated with compounds and subsequently loaded with a voltage sensing dye.
To identify potentiators of ΔF508-CFTR, a double-addition HTS assay format was developed. This HTS assay utilizes fluorescent voltage sensing dyes to measure changes in membrane potential on the FLIPR III as a measurement for increase in gating (conductance) of ΔF508 CFTR in temperature-corrected ΔF508 CFTR NIH 3T3 cells. The driving force for the response is a Cl^− ion gradient in conjunction with channel activation with forskolin in a single liquid addition step using a fluorescent plate reader such as FLIPR III after the cells have previously been treated with potentiator compounds (or DMSO vehicle control) and subsequently loaded with a redistribution dye.
Bath Solution #1: (in mM) NaCl 160, KCl 4.5, CaCl2 2, MgCl2 1, HEPES 10, pH 7.4 with NaOH.
Chloride-free bath solution: Chloride salts in Bath Solution #1 (above) are substituted with gluconate salts. […]

Data set [2] is described as follows: Physical and chemical stability of Compound 3 in aqueous methylcellulose formulations. It is filed as physicochemical. As to conditions: for physical stability of the HCl salt form in suspension: 0.5% methylcellulose/0.5% polysorbate 80 suspension vehicle, T(0), XRPD and 1H NMR. As for the experimental part: A 100 mL stock solution of 0.5% by weight methylcellulose was prepared by stirring 0.5 g of methylcellulose with 99.5 g of purified water until completely dissolved (approximately 24 hours). The appropriate amount of Compound 3 HCl salt based on free base was weighed and transferred to a scintillation vial. The desired amount of 0.5% methylcellulose stock solution for making a 6 mg/mL based on free base (6.48 mg/mL based on HCl salt) was transferred into the vial and sonicated for 20 minutes and homogenized for approximately 5 minutes.
Methylcellulose (0.5 g) was combined with 99.0 g of purified water in a beaker and stirred in a 60-70° C. water bath for 30′-1 hr. The solution was stirred in a 0° C. ice/water bath for another 30′ or until clear. Polysorbate 80 (0.5 g) was added and stirring at room temperature followed for 30′-1 hr or until a clear solution was obtained.
The appropriate amount of Compound 3 HCl salt based on free base was weighed and transferred to a scintillation vial. The desired amount of 0.5% methylcellulose and 0.5% polysorbate 80 stock solution for making a 6 mg/mL based on free base (6.48 mg/mL based on HCl salt) was transferred into the vial and sonicated for 20 minutes with alternate stirring for 1-2 minutes. The solution was homogenized for approximately 1-2 minutes.

Molecules are shown by their SMILES.

T1 sequence (P13569 with tags, fused parts or gaps DEL508-508): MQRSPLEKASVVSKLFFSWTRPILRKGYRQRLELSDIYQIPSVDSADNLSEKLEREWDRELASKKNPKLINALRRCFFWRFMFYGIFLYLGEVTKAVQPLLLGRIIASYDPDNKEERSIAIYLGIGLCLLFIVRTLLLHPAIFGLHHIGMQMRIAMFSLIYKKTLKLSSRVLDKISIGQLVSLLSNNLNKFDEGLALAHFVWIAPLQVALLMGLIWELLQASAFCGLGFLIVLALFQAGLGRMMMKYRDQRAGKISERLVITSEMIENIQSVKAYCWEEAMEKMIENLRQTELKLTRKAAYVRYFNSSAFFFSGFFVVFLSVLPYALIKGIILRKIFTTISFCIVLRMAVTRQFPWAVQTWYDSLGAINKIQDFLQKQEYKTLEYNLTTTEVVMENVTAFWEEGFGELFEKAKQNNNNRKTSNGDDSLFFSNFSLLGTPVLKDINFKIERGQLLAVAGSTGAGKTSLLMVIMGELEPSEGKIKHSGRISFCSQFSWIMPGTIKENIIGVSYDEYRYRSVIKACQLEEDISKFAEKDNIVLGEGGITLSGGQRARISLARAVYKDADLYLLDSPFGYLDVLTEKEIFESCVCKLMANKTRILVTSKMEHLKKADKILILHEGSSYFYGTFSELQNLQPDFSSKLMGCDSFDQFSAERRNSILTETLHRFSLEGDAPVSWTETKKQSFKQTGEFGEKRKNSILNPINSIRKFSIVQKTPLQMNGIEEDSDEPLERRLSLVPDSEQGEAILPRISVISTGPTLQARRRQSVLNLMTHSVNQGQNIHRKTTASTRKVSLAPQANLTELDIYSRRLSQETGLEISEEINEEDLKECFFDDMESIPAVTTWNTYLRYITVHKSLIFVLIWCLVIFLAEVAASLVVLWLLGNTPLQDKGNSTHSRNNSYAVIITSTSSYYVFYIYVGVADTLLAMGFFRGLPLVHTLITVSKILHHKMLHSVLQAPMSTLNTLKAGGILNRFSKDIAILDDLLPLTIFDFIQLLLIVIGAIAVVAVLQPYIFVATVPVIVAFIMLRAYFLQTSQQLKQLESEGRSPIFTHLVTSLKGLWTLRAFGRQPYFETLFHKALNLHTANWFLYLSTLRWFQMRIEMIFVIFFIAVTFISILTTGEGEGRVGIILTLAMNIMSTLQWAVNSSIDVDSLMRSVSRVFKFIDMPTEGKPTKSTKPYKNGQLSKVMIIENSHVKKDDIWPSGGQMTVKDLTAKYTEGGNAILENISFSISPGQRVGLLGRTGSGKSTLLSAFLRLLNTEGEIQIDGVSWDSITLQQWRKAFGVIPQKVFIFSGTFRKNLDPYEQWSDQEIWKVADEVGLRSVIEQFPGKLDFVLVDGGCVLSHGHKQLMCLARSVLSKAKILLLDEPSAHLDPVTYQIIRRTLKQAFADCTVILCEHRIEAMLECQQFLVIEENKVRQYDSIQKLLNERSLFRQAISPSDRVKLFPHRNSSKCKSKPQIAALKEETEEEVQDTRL

For `CC(C)(C)c1cc(C(C)(C)C)c(NC(=O)c2c[nH]c3ccccc3c2=O)cc1O` [Compound 1, N-[2,4-bis(1,1-dimethylethyl)-5-hydroxyphenyl]-1,4-dihydro-4-oxoquinoline-3-carboxamide], in data set [1] (Compound 1, potentiator activity, Protocol 1, read-out: % Activity (relative efficacy)), the Emax fell in the range of 25 to 100%. With `O=C(Nc1ccc(N2C3CCC2[C@H](O)C3)cc1C(F)(F)F)c1c[nH]c2cccc(C(F)(F)F)c2c1=O` (stereo partly drawn) [Compound 2-5], the “% Efficacy” value in data set [1] (compounds of Formula II, 100% efficacy is the maximum response obtained with 4-methyl-2-(5-phenyl-1H-pyrazol-3-yl)phenol) is given as “+++ (“+++” if efficacy was calculated to be greater than 100%)”. Consider `Cc1ccc(NC(=O)C2(c3ccc4c(c3)OC(F)(F)O4)CC2)nc1-c1cccc(C(=O)O)c1` [Compound 3 Form I, 3-(6-(1-(2,2-difluorobenzo[d][1,3]dioxol-5-yl)cyclopropanecarboxamido)-3-methylpyridin-2-yl)benzoic acid], for which the “chemically stable (time)” value in data set [2] (room temperature, 0.5% methylcellulose/0.5% polysorbate 80 formulation vehicle, no sign of chemical degradation) is recorded as “at least 24 hrs”. The “physically and chemically stable (time)” value in data set [2] (room temperature, methylcellulose formulation (0.5% by weight), no sign of chemical degradation) is “at least 24 hrs”. On to `Cc1ccc(NC(=O)C2(c3ccc4c(c3)OC(F)(F)O4)CC2)nc1-c1cccc(C(=O)O)c1.Cl` [Compound 3 HCl salt, 3-(6-(1-(2,2-Difluorobenzo[d][1,3]dioxol-5-yl)cyclopropanecarboxamido)-3-methylpyridin-2-yl)benzoic acid.HCl salt], for which the “physical stability of the HCl salt form in suspension” value in data set [2] is given as “not physically stable”; in data set [2] (listed as HCl salt), “quickly converted to Compound 3 Form I”.

For the origin of these results see patent US20160022665A2, “Pharmaceutical Compositions and Administrations Thereof” (Vertex Pharmaceuticals Incorporated, priority 2012, published 2016).
